# Values joined by “and” are separate entries in the source; they are usually repeats but may differ in a detail not shown here. Equal entries are not always repeated.
# Key:
# [1] = test system: human lymphocytes; conditions: cited from earlier work
# [2] = test system: Drosophila melanogaster high bioactivation cross (HB), marker-heterozygous flies (mwh +/+ flr3); assay: Drosophila wing spot test; assay type: in vivo
# [3] = test system: C. elegans; conditions: NIC 100 μM; cited from earlier work
# [4] = test system: Drosophila melanogaster standard cross (ST), marker-heterozygous flies (mwh +/+ flr3); assay: Drosophila wing spot test; assay type: in vivo
# [5] = test system: A549 human adenocarcinoma cells; conditions: cited from earlier work
# [6] = NIC 0.456 mM + RES 0.0004 mM vs NIC 0.456 mM
# [7] = NIC 0.456 mM + RES 0.0004 mM vs RES 0.0004 mM
# [8] = NIC 0.456 mM + RES 0.011 mM vs RES 0.011 mM
# [9] = NIC 11.4 mM + RES 0.0004 mM vs RES 0.0004 mM
# [10] = NIC […] + RES 0.0004 mM vs NIC […]
# [11] = NIC […] + RES 0.0004 mM vs RES 0.0004 mM
# [12] = HB cross, URE 20 mM positive control, vs water
# [13] = ST cross, URE 20 mM positive control, vs water
smiles,measurement,setting,value
"CN1CCC[C@H]1c1cccnc1 [NIC, nicotine]",Concentrations at which genotoxic in in vitro assays,[1],> 500 nM
same,Lethality,"[2]; HB cross, NIC 11.4 mM",lethal
same,Clone formation observed,[2]; NIC 0.456 mM,0.95 per 105 per cell Cells division
same,Large single spots (>2 cells) per fly (number of spots),[2]; NIC 0.456 mM,0.07 (007)
same,Mean mwh clone size class,[2]; NIC 0.456 mM,1.64
same,Small single spots (1-2 cells) per fly (number of spots),[2]; NIC 0.456 mM,0.38 (038)
same,Total spots per fly (number of spots),[2]; NIC 0.456 mM,0.48(048)
same,Twin spots per fly (number of spots),[2]; NIC 0.456 mM,0.03 (003)
same,mwh clones,[2]; NIC 0.456 mM,47
same,Clone formation observed,[2]; NIC 0.456 mM + RES 0.0004 mM,0.95 per 105 per cell Cells division and 0.90 per 105 per cell Cells division
same,Large single spots (>2 cells) per fly (number of spots),[2]; NIC 0.456 mM + RES 0.0004 mM,0.11 (007)
same,Mean mwh clone size class,[2]; NIC 0.456 mM + RES 0.0004 mM,2.21
same,Small single spots (1-2 cells) per fly (number of spots),[2]; NIC 0.456 mM + RES 0.0004 mM,0.36 (023)
same,Total spots per fly (number of spots),[2]; NIC 0.456 mM + RES 0.0004 mM,0.47 (030)
same,Twin spots per fly (number of spots),[2]; NIC 0.456 mM + RES 0.0004 mM,0.00 (000)
same,mwh clones,[2]; NIC 0.456 mM + RES 0.0004 mM,29
same,Clone formation control connected,[2]; [6],-0.05 per 105 per cell Cells division
same,Large single spots statistical diagnosis,[2]; [6],-
same,Small single spots statistical diagnosis,[2]; [6],-
same,Total spots statistical diagnosis,[2]; [6],-
same,Twin spots statistical diagnosis,[2]; [6],-
same,Clone formation control connected,[2]; [7],-0.25 per 105 per cell Cells division
same,Large single spots statistical diagnosis,[2]; [7],-
same,Small single spots statistical diagnosis,[2]; [7],-
same,Total spots statistical diagnosis,[2]; [7],-
same,Twin spots statistical diagnosis,[2]; [7],-
same,Large single spots (>2 cells) per fly (number of spots),[2]; NIC 0.456 mM + RES 0.011 mM,0.10 (006)
same,Small single spots (1-2 cells) per fly (number of spots),[2]; NIC 0.456 mM + RES 0.011 mM,0.37 (022)
same,Clone formation control connected,[2]; [8],0.20 per 105 per cell Cells division
same,Small single spots statistical diagnosis,[2]; [8],-
same,Clone formation observed,[2]; NIC 11.4 mM + RES 0.0004 mM,0.80 per 105 per cell Cells division
same,Large single spots (>2 cells) per fly (number of spots),[2]; NIC 11.4 mM + RES 0.0004 mM,0.00 (000)
same,Mean mwh clone size class,[2]; NIC 11.4 mM + RES 0.0004 mM,1.25
same,Small single spots (1-2 cells) per fly (number of spots),[2]; NIC 11.4 mM + RES 0.0004 mM,0.40 (004)
same,Total spots per fly (number of spots),[2]; NIC 11.4 mM + RES 0.0004 mM,0.40 (004)
same,Twin spots per fly (number of spots),[2]; NIC 11.4 mM + RES 0.0004 mM,0.00 (000)
same,mwh clones,[2]; NIC 11.4 mM + RES 0.0004 mM,04
same,Clone formation control connected,[2]; [9],-0.40 per 105 per cell Cells division
same,Large single spots statistical diagnosis,[2]; [9],-
same,Small single spots statistical diagnosis,[2]; [9],-
same,Total spots statistical diagnosis,[2]; [9],-
same,Twin spots statistical diagnosis,[2]; [9],-
same,Large single spots statistical diagnosis,[2]; [10],-
same,Twin spots statistical diagnosis,[2]; [10],-
same,Large single spots statistical diagnosis,[2]; [11],-
same,Small single spots statistical diagnosis,[2]; [11],-
same,Total spots statistical diagnosis,[2]; [11],-
same,Twin spots statistical diagnosis,[2]; [11],-
same,"Genotoxicity, comet assay (in words)",[3],genotoxic
same,Mean mwh clone size class,[4]; NIC 0.050 mM + RES 0.011 mM,1.34
same,Number of surviving flies,"[4]; ST cross, NIC 11.4 mM",decreased
same,Genotoxicity (in words),"[4]; ST cross, NIC […] and 11.4 mM, increased small and total spots",genotoxic
"Oc1ccc(/C=C/c2cc(O)cc(O)c2)cc1 [RES, Resveratrol]",Effect on cell survival (in words),[5]; RES 0.02 mM,inhibited cell survival
same,Effect on cell proliferation and viability (in words),[5]; RES 0.001 and 0.005 mM,promoted cell proliferation and viability
same,Clone formation observed,[2]; RES 0.0004 mM,1.20 per 105 per cell Cells division
same,Large single spots (>2 cells) per fly (number of spots),[2]; RES 0.0004 mM,0.06 (005)
same,Mean mwh clone size class,[2]; RES 0.0004 mM,1.84
same,Small single spots (1-2 cells) per fly (number of spots),[2]; RES 0.0004 mM,0.52 (045)
same,Total spots per fly (number of spots),[2]; RES 0.0004 mM,0.59 (051)
same,Twin spots per fly (number of spots),[2]; RES 0.0004 mM,0.01 (001)
same,mwh clones,[2]; RES 0.0004 mM,51
same,Mean mwh clone size class,[2]; RES 0.011 mM,1.43 and 1.56
same,Twin spots per fly (number of spots),[2]; RES 0.011 mM,0.02 (001)
same,Clone formation observed,[4]; RES 0.0004 mM,1.15 per 105 per cell Cells division
same,Large single spots (>2 cells) per fly (number of spots),[4]; RES 0.0004 mM,0.07 (004)
same,Mean mwh clone size class,[4]; RES 0.0004 mM,1.64
same,Small single spots (1-2 cells) per fly (number of spots),[4]; RES 0.0004 mM,0.53 (031)
same,Total spots per fly (number of spots),[4]; RES 0.0004 mM,0.60 (035)
same,Twin spots per fly (number of spots),[4]; RES 0.0004 mM,0.00 (0)
same,mwh clones,[4]; RES 0.0004 mM,33
same,Clone formation observed,[4]; RES 0.011 mM,1.15 per 105 per cell Cells division and 1.35 per 105 per cell Cells division
same,Large single spots (>2 cells) per fly (number of spots),[4]; RES 0.011 mM,0.03 (002) and 0.05 (005)
same,Mean mwh clone size class,[4]; RES 0.011 mM,1.84 and 1.58
same,Small single spots (1-2 cells) per fly (number of spots),[4]; RES 0.011 mM,0.47 (027) and 0.58 (057)
same,Total spots per fly (number of spots),[4]; RES 0.011 mM,0.57 (033) and 0.67 (066)
same,Twin spots per fly (number of spots),[4]; RES 0.011 mM,0.07 (004) and 0.04 (004)
"CCOC(N)=O [URE, ethyl carbamate]","Clone formation per 105 cells per cell division, observed","[2]; HB cross, URE 20 mM",6.35
same,Mean mvh clone size class,"[2]; HB cross, URE 20 mM",1.82
same,mwh clones,"[2]; HB cross, URE 20 mM",71
same,"Small single spots (1-2 cells), Spots per Fly (Number of Spots)",[2]; [12],2.52 (58) Spots per Fly
same,"Small single spots (1-2 cells), Statistical Diagnosis",[2]; [12],+
same,Total spots statistical diagnosis,[2]; [12],+
same,"Total spots, Spots per Fly (Number of Spots)",[2]; [12],3.09 (71) Spots per Fly
same,Twin spots statistical diagnosis,[2]; [12],+
same,"Twin spots, Spots per Fly (Number of Spots)",[2]; [12],0.17 (4) Spots per Fly
same,"large single spots (>2 cells), Spots per Fly (Number of Spots)",[2]; [12],0.39 (09) Spots per Fly
same,"large single spots (>2 cells), Statistical Diagnosis",[2]; [12],+
same,"Clone formation per 105 cells per cell division, control connected","[2]; HB cross, URE 20 mM, control water",4.85
same,"Clone formation per 105 cells per cell division, observed","[4]; ST cross, URE 20 mM",2.80
same,Mean mvh clone size class,"[4]; ST cross, URE 20 mM",1.45
same,mwh clones,"[4]; ST cross, URE 20 mM",38
same,"Small single spots (1-2 cells), Spots per Fly (Number of Spots)",[4]; [13],1.21 (34) Spots per Fly
same,"Small single spots (1-2 cells), Statistical Diagnosis",[4]; [13],+
same,Total spots statistical diagnosis,[4]; [13],+
same,"Total spots, Spots per Fly (Number of Spots)",[4]; [13],1.36 (38) Spots per Fly
same,Twin spots statistical diagnosis,[4]; [13],-
same,"Twin spots, Spots per Fly (Number of Spots)",[4]; [13],0.04 (1) Spots per Fly
same,"large single spots (>2 cells), Spots per Fly (Number of Spots)",[4]; [13],0.11 (03) Spots per Fly
same,"large single spots (>2 cells), Statistical Diagnosis",[4]; [13],-
same,"Clone formation per 105 cells per cell division, control connected","[4]; ST cross, URE 20 mM, control water",1.65

# From PMC9234589 (Heliyon, 2022)
